According to US20230131334A1, “COMPANION DIAGNOSTIC BIOMARKERS OF EGFR INHIBITOR” (SYNTEKABIO, INC., priority 2020, published 2023):

Test system: A549 cell line
Assay: WST-1 assay of drug responsiveness to pelitinib in A549 with LEPRE1 overexpression or inhibited expression
Assay type: cell-based
Details: Homo sapiens
Experimental: The expression level of LEPRE1 was identified by Western blot, and a test (WST-1 assay) of drug responsiveness to pelitinib was carried out. […] It was confirmed that LEPRE1 overexpression had the effect of increasing drug sensitivity to pelitinib. […] It was confirmed that the inhibited LEPRE1 expression had the effect of reducing drug sensitivity to pelitinib.
The loss-of-function effect whereby drug sensitivity to pelitinib decreases was confirmed when LEPRE1 expression was inhibited.

**Q.** `CCOc1cc2ncc(C#N)c(Nc3ccc(F)c(Cl)c3)c2cc1NC(=O)/C=C/CN(C)C` [pelitinib, Pelitinib] was tested. Which IC50 (A549, A549 overexpressing LEPRE1/pcDNA3.1, then treated with pelitinib) did it give?
**A.** 1030 ± 40.6 nM

**Q.** What about the IC50 (A549, A549 overexpressing pcDNA3.1 (empty vector), then treated with pelitinib) of the same compound?
**A.** 1670 ± 520 nM

**Q.** What about the IC50 (A549, A549 transfected with LEPRE1 siRNA (si2293), then treated with pelitinib) of the same compound?
**A.** 4010 ± 1010 nM

**Q.** What about the IC50 (A549, A549 transfected with negative control, then treated with pelitinib) of the same compound?
**A.** 1730 ± 187 nM
